Test results: patent US20250162989A1, “USP30 INHIBITORS AND USES THEREOF” (Vincere Biosciences, Inc., priority 2021, published 2025)
Read-outs that look alike come from different tables or passages of the source.

Assays:
[1] = molecular target: recombinant USP30 (amino acids 57-517 of the human sequence) (Homo sapiens (Human), UniProt Q70CQ3); experiment: In vitro USP30 biochemical assay (Ubiquitin-Rhodamine substrate); details: fluorescence
Procedure: In vitro biochemical assay to establish the potency of compounds for USP30 inhibition: a 384-well plate assay using a fluorophore tagged substrate of USP30 was used for in vitro screening of compounds. Each compound was tested at
10 different concentrations (0.5 to 10,000 nM) in duplicate wells. […] Data were analyzed using Graph Pad Prism software with a four-parameter (floating slope) fit to log concentration data to determine IC50s.

Kinetic solubility = assay type: physicochemical; details: 100 mM PBS, 1 hour at room temperature
Procedure: To 396 μL of a 100 mM phosphate buffered saline (PBS) was added 4 μL of a 10 mM stock solution of the compound. The mixture was shaken at 1000 rpm for 1 hour at room temperature. […] Compound concentration was calculated by comparison to a standard calibration curve. The assay was done in duplicate. The results are reported in μMol.

USP30 = USP30 (Homo sapiens (Human), UniProt Q70CQ3); experiment: Dundee MALDI-TOF mass spectrometry assay (K48-linked diubiquitin cleavage); assay type: biochemical; details: USP30 25 ng/μl, K48-linked diubiquitin 5.6 μM
Procedure: USP30 was diluted in a buffer containing 40 mM Tris, 0.01% BSA, 1 mM DTT and K48 in 40 mM Tris, 0.01% BSA.
The compounds were pre-incubated with the USP30 for 5 mins at room temp before the K48 dimer addition. The assay mixture was then incubated for 45 mins at room temp. The assay was stopped by the addition of TFA to a final concentration of 2% (v/v).
Acidified samples of the DUB assays were mixed with 0.5 mM 15N-ubiquitin and then with one part of 2% (v/v) TFA and one part of 2.5 DHAP matrix solution (7.6 mg of 2.5 DHAP in […] ethanol and […] of an aqueous 12 mg ml 1 diammonium hydrogen citrate).

[2] = tested on: Tom20 loss in differentiated RenCell VM; experiment: In-cell Tom20 loss assay; assay type: cell-based; details: 20 h after compound addition
Procedure: To evaluate Tom20 loss following treatment with compounds and/or antimycin/oligomycin, a 96-well plate assay was performed on differentiated RenCell VM. These were seeded into laminin-coated 96-well plates at 5000 cells/well in normal growth medium (ReNcell NSC maintenance medium+20 ng/ml FDF-2 and 20 ng/ml EGF). After 3 days, growth medium was replaced with differentiation medium (ReNCell NSC medium+0.1 mM dibutyryl cAMP and 2 ng/ml GDNF). On days 1 and 4 following addition of differentiation medium, the media was removed and replaced with fresh differentiation medium. […] After again washing with PBS, cells were imaged using GE INCell 6000 at 40× and quantified using HCA-based quantification algorithm of fluorescence density×area normalized to the number of nuclei.

[3] = 1.5 nM recombinant USP30, 25 nM Ubiquitin-Rhodamine
[4] = […] recombinant USP30, 25 nM Ubiquitin-Rhodamine

Chain of recombinant USP30 (amino acids 57-517 of the human sequence) (Q70CQ3 57-517): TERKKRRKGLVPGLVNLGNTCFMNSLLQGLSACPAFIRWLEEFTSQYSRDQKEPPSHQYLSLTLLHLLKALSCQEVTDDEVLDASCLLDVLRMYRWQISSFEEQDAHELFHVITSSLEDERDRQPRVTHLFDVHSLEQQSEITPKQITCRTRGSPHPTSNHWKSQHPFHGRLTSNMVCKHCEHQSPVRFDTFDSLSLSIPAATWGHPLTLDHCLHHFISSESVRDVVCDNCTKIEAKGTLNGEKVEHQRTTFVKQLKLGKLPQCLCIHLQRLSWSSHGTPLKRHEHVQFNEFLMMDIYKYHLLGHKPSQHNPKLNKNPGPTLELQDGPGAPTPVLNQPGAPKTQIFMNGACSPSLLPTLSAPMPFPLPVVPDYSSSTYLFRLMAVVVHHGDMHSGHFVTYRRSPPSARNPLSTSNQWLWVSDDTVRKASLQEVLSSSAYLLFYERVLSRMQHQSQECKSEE
Chain of USP30 (Q70CQ3 whole entry): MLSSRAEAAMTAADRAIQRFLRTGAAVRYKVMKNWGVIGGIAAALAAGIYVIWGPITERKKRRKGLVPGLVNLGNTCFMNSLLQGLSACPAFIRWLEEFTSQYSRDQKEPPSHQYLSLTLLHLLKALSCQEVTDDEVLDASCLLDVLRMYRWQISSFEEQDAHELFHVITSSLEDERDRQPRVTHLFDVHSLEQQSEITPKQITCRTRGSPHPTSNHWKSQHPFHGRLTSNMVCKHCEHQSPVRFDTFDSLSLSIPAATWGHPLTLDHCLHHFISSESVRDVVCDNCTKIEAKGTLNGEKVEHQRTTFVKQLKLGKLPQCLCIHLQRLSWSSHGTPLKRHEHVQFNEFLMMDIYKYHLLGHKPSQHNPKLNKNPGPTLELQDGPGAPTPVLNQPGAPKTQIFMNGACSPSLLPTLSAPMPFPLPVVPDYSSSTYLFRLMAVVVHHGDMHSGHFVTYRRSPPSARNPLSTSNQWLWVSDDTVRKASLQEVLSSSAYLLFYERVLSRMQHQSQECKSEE

Row | Compound | IC50 [1, 3] | IC50 (USP30; read-out: USP30 IC50 μM (avg)) | IC50 [1, 4] | also measured
1 | CN1CCC(C[C@H](NC(=O)c2ccc(F)cc2)C(=O)Nc2ccc(S(=O)(=O)NC(C)(C)C)nc2)CC1 [Compound I-78] | 0.05 to 1 µM | < 0.05 µM |  | Kinetic Solubility (μMol) (Kinetic solubility): A (solubility of ≥75.0 μMol)
2 | CC(C)(C)NS(=O)(=O)c1ccc(NC(=O)[C@H](CC2CCNCC2)NC(=O)c2ccc(F)cn2)cc1 [Compound I-175, (S)—N-(1-((4-(N-(tert-butyl)sulfamoyl)phenyl)amino)-1-oxo-3-(piperidin-4-yl)propan-2-yl)-5-fluoropicolinamide] |  | < 0.05 µM | < 0.05 µM | Kinetic Solubility (μMol) (Kinetic solubility): A (solubility of ≥75.0 μMol)
3 | CC(C)(CCO)NS(=O)(=O)c1ccc(NC(=O)[C@H](Cc2ccc(-c3ccccc3)cc2)NC(=O)c2ccc(F)cc2)cc1 [Compound I-59] | 0.05 to 1 µM |  |  | Kinetic Solubility (μMol) (Kinetic solubility): D (solubility of <1.0 μMol)
4 | CC(C)(CO)NS(=O)(=O)c1ccc(NC(=O)[C@@H](NC(=O)c2ccc(F)cc2)C(C)(C)c2ccccc2)cc1 [Compound I-62] | 1 to 10 µM |  |  | Kinetic Solubility (μMol) (Kinetic solubility): C (solubility ≥1.0 μMol and <50.0 μMol)
5 | O=C(N[C@@H](Cc1ccccc1)C(=O)Nc1ccc(S(=O)(=O)NC2COC2)c(O)c1)c1ccc(F)cc1 [Compound I-66] | 0.05 to 1 µM |  |  | Kinetic Solubility (μMol) (Kinetic solubility): B (solubility of ≥50.0 μMol and <75.0 μMol); IC50 (USP30; read-out: IC50): < 0.05 µM
6 | CCN1CCC(C[C@H](NC(=O)c2ccc(F)cc2)C(=O)Nc2ccc(S(=O)(=O)NC(C)(C)C)cc2)CC1 [Compound I-42] | 0.05 to 1 µM |  |  | Kinetic Solubility (μMol) (Kinetic solubility): A (solubility of ≥75.0 μMol)
7 | CN1CCC(C[C@H](NC(=O)c2ccc(F)cc2)C(=O)Nc2ccc(S(=O)(=O)NC(C)(C)C)cc2)CC1 [Compound I-41] | 0.05 to 1 µM |  |  | Kinetic Solubility (μMol) (Kinetic solubility): A (solubility of ≥75.0 μMol)
8 | CC(C)(C)NS(=O)(=O)c1ccc(NC(=O)[C@@H](NC(=O)c2ccc(F)cc2)C(C)(C)c2ccccc2)cc1 [Compound I-61] | 0.05 to 1 µM |  |  | Kinetic Solubility (μMol) (Kinetic solubility): D (solubility of <1.0 μMol)
9 | CN1CCC(C[C@H](NC(=O)c2ccc(F)cn2)C(=O)Nc2ccc(S(=O)(=O)NC(C)(C)C)cc2)CC1 [Compound I-185, (S)—N-(1-((4-(N-(tert-butyl)sulfamoyl)phenyl)amino)-3-(1-methylpiperidin-4-yl)-1-oxopropan-2-yl)-5-fluoropicolinamide] |  | < 0.05 µM | < 0.05 µM | 
10 | CC(C)(C)NS(=O)(=O)c1ccc(NC(=O)C(CC2CCN(CCO)CC2)NC(=O)c2ccc(F)cc2)cc1 (centres unmarked) [Compound I-121] |  | < 0.05 µM | < 0.05 µM | 
11 | COc1cc(NC(=O)[C@H](CC2CCNCC2)NC(=O)c2ccc(F)cc2)ccc1S(=O)(=O)NC(C)(C)C [Compound I-155] | 0.05 to 1 µM | < 0.05 µM |  | 
12 | O=C(N[C@@H](CC1CCNCC1)C(=O)Nc1ccc(S(=O)(=O)NC2CCOCC2)cc1)c1ccc(F)cc1 [Compound I-157] | 0.05 to 1 µM | 0.05 to 1 µM |  | 
13 | CC(C)(CF)NS(=O)(=O)c1ccc(NC(=O)[C@H](CC2CCOCC2)NC(=O)c2ccc(F)cc2)cc1 [Compound I-112] |  | < 0.05 µM | < 0.05 µM | 
14 | CC(C)(C)NS(=O)(=O)c1ccc(NC(=O)[C@H](CC2CCN(Cc3ccccc3)CC2)NC(=O)c2ccc(F)cc2)cc1 [Compound I-115] |  | < 0.05 µM | < 0.05 µM | 
15 | COc1cc(NC(=O)[C@H](CC2CCNCC2)NC(=O)c2ccc(F)cc2)ccc1S(=O)(=O)N[C@@H]1CCOC1 [Compound I-110] | 0.05 to 1 µM | 0.05 to 1 µM |  | 
16 | COc1cc(NC(=O)[C@H](Cc2ccccc2)NC(=O)c2ccc(F)cc2)ccc1S(=O)(=O)NC(C)(CO)CO [Compound I-138] | 0.05 to 1 µM | < 0.05 µM |  | 
17 | CC(C)C[C@H](NC(=O)c1ccc(F)cc1)C(=O)Nc1ccc(S(=O)(=O)N[C@@H]2CCOC2)cc1 [Compound I-71] | 0.05 to 1 µM | < 0.05 µM |  | 
18 | COc1cc(NC(=O)[C@H](CC2CCN(C(C)=O)CC2)NC(=O)c2ccc(F)cc2)ccc1S(=O)(=O)NC(C)(C)C [Compound I-160] |  | < 0.05 µM | < 0.05 µM | 
19 | CC(C)C[C@H](NC(=O)c1ccc(F)cc1)C(=O)Nc1ccc(S(=O)(=O)NC(C)(C)C)cc1 [Compound I-11] |  |  | < 0.05 µM | IC50 [2]: < 500 nM

Row | Compound | IC50 [1, 3] | IC50 (USP30; read-out: USP30 IC50 μM (avg)) | IC50 [1, 4] | also measured
20 | C[C@H](CO)NS(=O)(=O)c1ccc(NC(=O)[C@H](Cc2ccccc2)NC(=O)c2ccc(F)cc2)cc1 [Compound I-130] |  | < 0.05 µM | < 0.05 µM | 
21 | CC(C)C[C@H](NC(=O)c1ccc(F)cc1)C(=O)Nc1ccc(S(=O)(=O)NC(C)(C)CCO)cc1 [Compound I-20, (S)-4-fluoro-N-(1-((4-(N-(4-hydroxy-2-methylbutan-2-yl)sulfamoyl)phenyl)amino)-4-methyl-1-oxopentan-2-yl)benzamide] | 0.05 to 1 µM |  |  | Kinetic Solubility (μMol) (Kinetic solubility): B (solubility of ≥50.0 μMol and <75.0 μMol)
22 | CC(C)(C)NS(=O)(=O)c1ccc(NC(=O)[C@H](CC2CCNCC2)NC(=O)c2ccc(F)nc2)cc1 [Compound I-186] | 0.05 to 1 µM | 0.05 to 1 µM |  | 
23 | CC(C)(C)NS(=O)(=O)c1ccc(NC(=O)[C@H](CC2CCOCC2)NC(=O)c2ccc(F)nc2)cc1 [Compound I-196] |  | < 0.05 µM | < 0.05 µM | 
24 | CC(=O)N1CCC(C[C@H](NC(=O)c2ccc(F)cc2)C(=O)Nc2ccc(S(=O)(=O)NC(C)(C)C)nc2)CC1 [Compound I-156] |  | < 0.05 µM | < 0.05 µM | 
25 | CC(C)(C)NS(=O)(=O)c1ccc(NC(=O)[C@H](CC2CCN(CCC(F)(F)F)CC2)NC(=O)c2ccc(F)cc2)cn1 [Compound I-208] | 0.05 to 1 µM | 0.05 to 1 µM |  | 
26 | CN1CCC(C[C@H](NC(=O)c2ccc(F)cc2)C(=O)Nc2ccc(S(=O)(=O)N[C@@H]3CCOC3)cc2)CC1 [Compound I-103] | 0.05 to 1 µM | 0.05 to 1 µM |  | 
27 | COc1cc(NC(=O)[C@H](Cc2ccccc2)NC(=O)c2ccc(F)cc2)ccc1S(=O)(=O)NC1(CO)CC1 [Compound I-141] | 0.05 to 1 µM | < 0.05 µM |  | 
28 | COc1cc(NC(=O)[C@H](CC2CCOCC2)NC(=O)c2ccc(F)cc2)ccc1S(=O)(=O)NC1CCCC1 [Compound I-87] |  | < 0.05 µM | < 0.05 µM | 
29 | CC(C)(C)NS(=O)(=O)c1ccc(NC(=O)[C@H](Cc2ccccc2)NC(=O)c2ccon2)cc1 [Compound I-167] | 0.05 to 1 µM | 0.05 to 1 µM |  | 
30 | O=C(N[C@@H](Cc1ccccc1)C(=O)Nc1ccc(S(=O)(=O)NC2(CF)CC2)cc1)c1ccc(F)cc1 [Compound I-200] | 0.05 to 1 µM | < 0.05 µM |  | 
31 | CC(=O)CN1CCC(C[C@H](NC(=O)c2ccc(F)cc2)C(=O)Nc2ccc(S(=O)(=O)NC(C)(C)C)cc2)CC1 [Compound I-172] | 0.05 to 1 µM | < 0.05 µM |  | 
32 | CC(C)(C)NS(=O)(=O)c1ccc(NC(=O)C(CC2CCN(C=O)CC2)NC(=O)c2ccc(F)cc2)cc1 (centres unmarked) [Compound I-145] |  | < 0.05 µM | < 0.05 µM | 
33 | CN1CCC(C[C@H](NC(=O)c2ccc(F)cc2)C(=O)Nc2ccc(S(=O)(=O)NC(C)(C)CO)nc2)CC1 [Compound I-106] | 0.05 to 1 µM | 0.05 to 1 µM |  | 
34 | CC(CO)(CO)NS(=O)(=O)c1ccc(NC(=O)[C@H](Cc2ccccc2)NC(=O)c2ccc(F)cc2)cc1 [Compound I-132] | 0.05 to 1 µM | < 0.05 µM |  | 
35 | COc1cc(NC(=O)[C@H](CC2CCN(C)CC2)NC(=O)c2ccc(F)cc2)ccc1S(=O)(=O)NC1CCOCC1 [Compound I-143] | 0.05 to 1 µM | 0.05 to 1 µM |  | 
36 | CC(C)CC[C@H](NC(=O)c1ccc(F)cc1)C(=O)Nc1ccc(S(=O)(=O)NC(C)(C)C)cc1 [Compound I-23] |  |  | < 0.05 µM | Kinetic Solubility (μMol) (Kinetic solubility): D (solubility of <1.0 μMol)
37 | CC(C)(C)NS(=O)(=O)c1ccc(NC(=O)[C@H](Cc2ccc(-c3ccccc3)cc2)NC(=O)c2ccc(F)cc2)cc1 [Compound I-60] | 0.05 to 1 µM |  |  | Kinetic Solubility (μMol) (Kinetic solubility): D (solubility of <1.0 μMol)
